Laboratory results from US9326996B2, “Use of xenon as neuroprotectant in a neonatal subject” (IMPERIAL INNOVATIONS LIMITED, priority 2004, dated 2016).
Read-outs that look alike come from different tables or passages of the source. Each block holds one compound with its values, some of them ahead of it.

Experiments:
[1] = test system: activated caspase-3 in cortex; assay: Cortical activated caspase-3 immunohistochemistry after anesthetic gas exposure
Procedure: (§1) 7 day old Sprague-Dawley rat pups were placed in individual wells of a custom-built anesthetic chamber, and randomised to groups A-F to receive one of 6 gas combinations for 6 hours. Previous work has established that NMDA receptor antagonists have their maximal neurodegenerative affect 7 days after birth (Ikonomidou et al., 1999).
(§2) Group B received 75% nitrous oxide and 25% oxygen as delivered by a calibrated anesthetic machine, whereas group C received 75% xenon along with 25% oxygen through a customised anesthetic machine modified for xenon delivery (Ohmeda, modified by Air Products, Surrey, UK). Group D were exposed to 25% oxygen along with 0.75% isoflurane. The remaining 2 groups were exposed to combinations of gases—namely 25% oxygen+75% nitrous oxide+0.75% isoflurane (group E) and 25% oxygen+60% xenon+15% nitrogen+0.75% isoflurane (group F). The high cost of xenon precludes its use in an open-circuit, consequently group C and group F received gases using a closed-circuit system, whereas gases for all other groups were delivered in a high-flow open-circuit.
(§3) Rats destined for immunohistochemistry were sacrificed with 100 mg kg^−1 sodium pentobarbital IP immediately post-anesthesia, whereas those rats for DeOlmos silver staining were allowed to recover for 18 hrs before undergoing the same procedure. A thoracotomy was performed, and the aorta cannulated via a needle inserted into the apex of the heart. The pup was then perfused with 10 ml of 1% heparin solution, with the excess solution leaving through an incision in the right atrium. To fix the tissues, 20 ml of 4% paraformaldehyde in 0.1M phosphate buffer was injected by the same transcardial route. The whole brain was then removed and allowed to fix in paraformaldehyde perfusate and refrigerated at 4° C. 24 hours later, the brains were transferred to a solution of 30% sucrose with phosphate buffer and 1% sodium azide, and were kept refrigerated until the brains sank (approximately 48 hours).
(§4) Once processed, a block was cut to safely include the area of interest—a coronal section −3.6 mm from the bregma (FIG. 1B). The blocks were then embedded and frozen into O.C.T. solution. The block was then cut coronally into approximately 120 slices, each 30 μm thick, with a cryostat (Bright Instrument Company Ltd., Huntingdon, UK). The cut sections were transferred to a 6 well plate containing phosphate buffered saline (PBS).
(§5) A random well from each cut block, each containing around 20 representative slices of the total block, was transferred to a marked silk-bottomed well using a 3 ml Pasteur pipette. The sections were then washed in 5 ml of PBS for 5 min on a shaker set at 75 rpm. This washing procedure was repeated twice more, replacing the PBS each time. To quench the sections, they were incubated at room temperature on a shaker for 30 min in a solution comprising 35 ml methanol, 15 ml of PBS and 500 μl of stock 30% H2O2.
The quenching solution was then removed, and the sections washed three times in PBS. Sections were blocked for 60 min at room temperature with 50 ml of PBST (PBS containing 0.5% Triton-X (Promega Corporation, Madison, Wis.)), and 1500 μl of normal goat serum (NGS) (Vector Laboratories Inc., Burlingame, Calif.). For incubation with the primary antibody, the sections were kept overnight at 4° C. on a shaker set at 50 rpm in a solution made up of […] rabbit anti-cleaved caspase-3 antibody (New England Biolabs, Hertfordshire, UK), 50 ml of PBST and 500 μl of NGS. […]

[2] = test system: neuronal glial co-culture; assay: LDH release after preconditioning and oxygen glucose deprivation, neuronal glial co-culture; assay type: cell-based, mouse; conditions: for LDH release following oxygen glucose deprivation: 2 h preconditioning
Procedure: The pups were anaesthetised with isoflurane and then decapitated with the heads placed immediately into 4° C. HSG solution, an isotonic, high sucrose glucose solution made primarily from Hank's balanced salt solution (HBSS, GibroBRL) enhanced with NaHCO3 (0.04 M), sucrose (0.2 M) and D-Glucose (0.3 M) also containing antibiotic-anti-mycotic solution (AAS, GibroBRL). […] HSG solution.
The brain tissue was then immersed in 0.25% trypsin and was placed in a shaking air chamber for 50 minutes at 37° C. filled with 5% CO2 and 95% room air. DNase was then added to the mixture and placed back into the shaking air chamber for a further 15 minutes. The mixture was then centrifuged at 1600 rpm for 10 minutes at 4° C. and the supernatant was carefully discarded. The cells were then resuspended and then plated at a density of 6.25×10^4 cells/cm^2 on 24-multiwell plates (Costar, Cambridge, Mass.) and cultured in a medium consisting of Eagle's minimum essential medium augmented with 20 mM glucose, 26 mM NaHCO3, 10% foetal bovine serum, 10% heat-inactivated horse serum, AAS (Gibco, Paisley, UK), 2 mM glutamine (Sigma, Poole, UK) and 10 ng/ml murine epidermal growth factor (EGF) (GibcoBRL). Glial cells reached confluence about one week after plating.
Using a similar procedure cortical neuronal cells were obtained from fetal BALB/c mice at 14-16 days of gestation and plated at a density of 1.25×10^5 cells per cm^2 on the confluent monolayer of glial cells derived from the corresponding genetic strain. Neuronal cells reached confluence 10 days after plating.
Sevoflurane was delivered using a vaporiser (Datex-Ohmeda).
The amount of neuronal damage was assessed by the amount of LDH released into the culture medium, using a standardised colorimetric enzyme kit (Sigma, Poole, UK). This technique has been previously described (Wilhelm et al 2002). LDH assessment was performed 16 hours after oxygen glucose deprivation (FIG. 8).

[3] = in vivo; cited from earlier work
pure neuronal cultures = assay: FACS assessment of necrotic, viable and apoptotic cell populations after preconditioning and oxygen glucose deprivation
Procedure: Neuronal cells were harvested from 19 day old embryonic mice by cesarean section for pregnant BALB/c mice. 6-9 mouse brains were removed from fetal mice and dissected to isolate whole cerebral neocortices devoid of the hippocampus, basal ganglia and meninges. Again throughout the micro dissection process, brain tissues were kept in 4° C. HSG solution. […] The cells were plated at a density of 1.2×10^5 cells, per cm^2 on 24-multiwell plates (Cater, Cambridge, Mass.) and the cultures were maintained at 37° C. in a humidified 5% CO2 environment. Neurobasal Media supplemented with B27, glutamine and AAS was used to resuspend the neuronal cells and as culture medium. For every 10 ml of Neurobasal Media, the following supplements were added: 200 μl B27, 100 μl antibiotic and 25 μl glutamine. Medium replacement for these cells was performed on day 2, 5 and 7 with pre-warmed 37° C. culture medium (Neurobasal Media, B27, Glutamine and AAS). On day 5 after neuronal plating, 100 μl/10 ml cytosine arabinoside (CA hydrochloride, Sigma) was added to the cell cultures to halt non-neuronal cell division. Neuronal cell cultures were ready to use on day 7.
Cells were preconditioned using a purpose built 1.4 liter airtight, temperature controlled gas chambers. The chambers had inlet and outlet valves and an internal electric fan to ensure effective and continuous delivery of gases. Gas flow rate was 100 ml/min, and so chambers were flushed and allowed to equilibrate for 45 minutes before establishing a closed system. Cells were preconditioned for 2 hours inside the closed system with the appropriate gas concentrations using flow meters. Sevoflurane was delivered using a vaporiser (Datex-Ohmeda).
To model ischaemic damage in the brain, neuronal cells were subjected to oxygen glucose deprivation. Twenty four hours after preconditioning cells, cultures were washed twice with HEPES buffer solution (120 mM NaCl, 5.4 mM KCL, 0.8 mM MgCl2, 15 mM glucose and 20 mM HEPES, titrated to pH 7.4 using 1M NaOH). […] The cells were exposed to this anoxic environment for 75 minutes. Oxygen glucose deprivation was terminated by removing the cultures from the gas chamber and changing the media; cultures destined for lactate dehydrogenase (LDH) assay were washed once and replaced with Eagle's minimal essential medium enhanced with 25 mM glucose and 38 mM NaHCO3, whereas pure neuronal cultures for FACS were washed once and replaced with Neurobasal Media supplemented with B27, glutamine and AAS.
Twenty fours hours after oxygen glucose deprivation, cells were stained for FACS analysis. The culture medium was removed and washed twice with HEPES buffer solution. […] Cells were then washed twice with 1×BB, and then 0.8 μg/ml propidium iodide (Sigma-Aldrich, Poole, UK) in 1% fetal bovine serum (FBS) in phosphate buffer solution (PBS) was added and left to incubate on ice for 5 minutes. […] 800 μl 1% FBS in PBS was then added to stop the reaction, cells were removed and added to tubes for centrifugation at 1200 g for 10 minutes. The supernatant was discarded and the cells were re-suspended with 300 μl 1% FBS in PBS. Steps, if possible, were performed on ice to reduce the amount of neuronal death.
A FACSCalibur (Becton Dickinson, Sunnyvale, Calif.) with a single argon laser was used for flow cytometric analysis. […] At least 10,000 cells per sample were analysed.

[4] = test system: activated caspase-3 in hippocampus; assay: Hippocampal activated caspase-3 immunohistochemistry after anesthetic gas exposure
Procedure: as §1, §2, §3, §4
as §5, with “To quench the sections, they were incubated at room temperature on a shaker for 30 min in a solution comprising 35 ml methanol, 15 ml of PBS and 500 μl of stock 30% H2O2.” left out

[5] = 12.5% xenon, 0.67% sevoflurane or their combination as preconditioning, then oxygen glucose deprivation
[6] = 7 day old Sprague-Dawley rats, 6 h exposure with 25% oxygen, 75% N2O, 75% xenon, 0.75% isoflurane, 75% N2O+0.75% isoflurane, 60% xenon+0.75% isoflurane, air control 19.3±6.4
[7] = Sprague-Dawley, rat, in vivo, 6 h

SMILES: FCOC(C(F)(F)F)C(F)(F)F [sevoflurane]
degenerating neurons, positive cells ([1]; 1.5% sevoflurane alone, control value 20.0±2, brain region not stated): 42±2 positive cells
concentration producing a significant reduction in LDH release ([2]; 2 h preconditioning followed by OGD): greater than 1.9%
LDH release following oxygen glucose deprivation ([2]; sevoflurane at 0.67%, ineffective): 97+/−5 % of controls
LDH release following oxygen glucose deprivation ([2]; sevoflurane at 1.3%): 100+/−11 % of controls
LDH release following oxygen glucose deprivation ([2]; sevoflurane at 2.7%, p<0.05): 64+/−6 % of control
LDH release following oxygen glucose deprivation ([2]; sevoflurane at 3.3%, p<0.001): 37+/−5 % of controls
atmosphere sufficient to maintain anesthesia [3]: about 2.5%
apoptotic cell population (pure neuronal cultures; [5]): 17+/−1%
viable cell population (pure neuronal cultures; [5]): 9%
necrotic cell population (pure neuronal cultures; 12.5% xenon, 0.67% sevoflurane or their combination as preconditioning, then oxygen glucose deprivation, sham 70+/−2%, control 17+/−1%): 81+/−2%

SMILES: FC(F)OC(Cl)C(F)(F)F (centres unmarked) [isoflurane]
increase in the level of apoptosis in the cortex vs controls ([1]; 0.75% isoflurane or 75% N2O+0.75% isoflurane, neonatal rats): 4 fold
number of caspase-3 positive cells in cortex (mean±SD) [1, 6]: 76.5±11.4
increase in the level of apoptosis in the hippocampus vs controls [4, 7]: 4 fold
number of caspase-3 positive cells in hippocampus (mean±SD) [4, 7]: 22.1±9.6

number of caspase-3 positive cells in cortex (mean±SD) [1, 7]: 22.5±5.9
number of caspase-3 positive cells in hippocampus (mean±SD) [4, 7]: 3.7±1.4
SMILES: [N-]=[N+]=O [N2O, nitrous oxide]

SMILES: [Xe] [xenon]
number of caspase-3 positive cells in cortex (mean±SD) [1, 6]: 19.7±9.6
number of caspase-3 positive cells in hippocampus (mean±SD) ([4]; 7 day old Sprague-Dawley rats, 6 h exposure with 25% oxygen, 75% N2O, 75% xenon, 0.75% isoflurane, 75% N2O+0.75% isoflurane, 60% xenon+0.75% isoflurane, controls 5.2±1.8): 5.0±3.2
LDH release following oxygen glucose deprivation ([2]; xenon at 12.5%, not significant): 83+/−7 % of controls
LDH release following oxygen glucose deprivation ([2]; xenon at 25%, not significant): 70+/−11 % of controls
LDH release following oxygen glucose deprivation ([2]; xenon at 50%, p<0.05): 55+/−12 % of control values
LDH release following oxygen glucose deprivation ([2]; xenon at 75%, p<0.05): 49+/−12 % of control values
atmosphere sufficient to induce or maintain anesthesia [3]: about 70%
necrotic cell population (pure neuronal cultures): 75+/−2%
apoptotic cell population (pure neuronal cultures; [5]): 9+/−1%
viable cell population (pure neuronal cultures; [5]): 9%
